From US20180200257A1, “METHODS FOR THE TREATMENT OF INFLAMMATORY DISORDERS” (Galapagos NV, priority 2015, published 2018)

System: subjects with moderately to severely active RA who have an inadequate response to methotrexate (MTX)
Assay: Study 1 (add-on to MTX) - DAS28(CRP) scores
Format: in vivo, human
Design: key to DAS28(CRP) mean CFB (LOCF): change from baseline in DAS28(CRP) score (joints, CRP, 0-100 VAS)
Protocol: Double-blind, placebo-controlled add on study in subjects with moderately to severely active RA who have an inadequate response to methotrexate (MTX) (oral or parenteral).
595 subjects randomized to one of 6 dose regimens of Compound 1 (dosed as [Compound 1:HCl:3H2O]) (3 dose levels administered either once or twice daily) or placebo on top of each subject's stable dose of MTX.
Compound 1 (dosed as [Compound 1:HCl:3H2O]) is dosed for twelve weeks once daily (q.d.) (50 mg, 100 mg or 200 mg) or twice daily (b.i.d.) (25 mg, 50 mg or 100 mg); or placebo.
At Week 12, the subjects on placebo who have not achieved 20% improvement in swollen joint count (SJC66) and tender joint count (TJC68) are re-randomized automatically to receive Compound 1 (dosed as a [Compound 1:HCl:3H2O]) either at 100 mg q.d. or 50 mg b.i.d. doses in a blinded fashion; subjects on 50 mg q.d. who have not achieved 20% improvement in SJC66 and TJC68 will be assigned to 100 mg q.d. and subjects on 25 mg b.i.d. that have not achieved a 20% improvement in SJC66 and TJC68 will be assigned to 50 mg b.i.d. Subjects who switch treatment at week 12 are handled as if they discontinued at week 12 for the purpose of statistical analysis, whereas subjects in the other groups will maintain their randomized treatment until Week 24.
The (DAS28(CRP)) is a system developed and validated by the European League Against Rheumatism (EULAR) to measure the progress and improvement of rheumatoid arthritis and has been extensively validated (Wells et al., 2008). The DAS28(CRP) scoring includes a 28 tender and swollen joint count, CRP measurement from blood analysis, and a general health assessment on a visual analog scale (Fransen et al., 2003).
DAS28(CRP) values range from 2.0 to 10.0, and more particularly reflect the following status: • Remission: DAS28(CRP) ≤2.6 • Low Disease activity: 2.6 <DAS28(CRP) ≤3.2 • Moderate Disease Activity: 3.2 <DAS28(CRP) ≤5.1 • High Disease Activity: DAS28(CRP) >5.1
In practice, the DAS28(CRP) measurement involves the evaluation 28 different joints including in the measurement (proximal interphalangeal joints (10 joints), metacarpophalangeal joints (10), wrists (2), elbows (2), shoulders (2), and knees (2)). When looking at these joints, both the number of joints with tenderness upon touching and swelling are counted.
Secondly, C-reactive protein level is measured.
Finally, the patient makes a subjective assessment of disease activity during the preceding 7 days on a scale between 0 and 100, where 0 is “no activity” and 100 is “highest activity possible”.
The DAS28(CRP) score is then calculated as follows:
Firstly, the patient is asked to make a vertical mark on a 100 mm Visual Analog Scale (VAS) corresponding to their general health or global disease activity on a touch screen to measure the VAS value, which is used in the formula below.
Secondly, a swollen and tender joint examination is then performed on the patient. The swollen and tender joints are recorded. From this examination are obtained the total amount of swollen joints (SJC) and the total amount of tender joints (TJC), which are used in the formula below.
Thirdly, C-reactive protein (CRP) levels are measured.
Finally, the values obtained above (VAS, TJC28, SJC28, and CRP) are computed into the following Formula to obtain the DAS28(CRP) score.
DAS28(CRP)=0.56*√{square root over (TJC28)}+0.28√{square root over (SJC28)}+[…] ln(CRP+1)+0.014*VAS
The improvement (decreases) in the DAS28(CRP) scores for each patient group at weeks 1, 2, 4, 8 and 12 is shown in Table LXXXVII and Table LXXXVIII below, together with the Hommel-corrected p-value for the pairwise comparisons of each group with placebo.
The number of subjects (N) provided in each groups corresponds to the number of subjects starting the study in each group, and the DAS28 (CRP) data reported below corresponds to the responding subjects continuing for the entire 24 weeks on their initial treatment course.

Which results are given for `O=C(Nc1nc2cccc(-c3ccc(CN4CCS(=O)(=O)CC4)cc3)n2n1)C1CC1` [Compound 1, cyclopropanecarboxylic acid {5-[4-(1,1-dioxo-thiomorpholin-4-ylmethyl)-phenyl]-[1,2,4]triazolo[1,5-a]pyridin-2-yl}-amide]?
DAS28(CRP) mean CFB (LOCF) (50 mg q.d., week 1, 12 weeks results): −0.65; DAS28(CRP) mean CFB (LOCF) (50 mg q.d., week 1, 24 weeks results): −0.65; DAS28(CRP) mean CFB (LOCF) (50 mg q.d., week 2, 12 weeks results): −0.94; DAS28(CRP) mean CFB (LOCF) (50 mg q.d., week 2, 24 weeks results): −0.94; DAS28(CRP) mean CFB (LOCF) (50 mg q.d., week 4, 12 weeks results): −1.28; DAS28(CRP) mean CFB (LOCF) (50 mg q.d., week 4, 24 weeks results): −1.28; DAS28(CRP) mean CFB (LOCF) (50 mg q.d., week 12, 12 weeks results): −1.75; DAS28(CRP) mean CFB (LOCF) (50 mg q.d., week 12, 24 weeks results): −1.75; DAS28(CRP) mean CFB (LOCF) (50 mg q.d., week 16, 24 weeks results): −1.91; DAS28(CRP) mean CFB (LOCF) (50 mg q.d., week 20, 24 weeks results): −1.99; DAS28(CRP) mean CFB (LOCF) (50 mg q.d., week 24, 24 weeks results): −1.98; % patients reaching low disease activity and/or remission at week 12 (LOCF) (50 mg q.d., 12 weeks results): 24%; % patients reaching low disease activity at week 12 (LOCF) (50 mg q.d., 12 weeks results): 12%; % patients reaching remission at week 12 (LOCF) (50 mg q.d., 12 weeks results): 12%; % patients reaching low disease activity and/or remission at week 24 (LOCF) (50 mg q.d., 24 weeks results): 33%; % patients reaching low disease activity at week 24 (LOCF) (50 mg q.d., 24 weeks results): 12%; % patients reaching remission at week 24 (LOCF) (50 mg q.d., 24 weeks results): 21%; DAS28(CRP) mean CFB (LOCF) (50 mg q.d., week 8, 12 weeks results): −1.66; DAS28(CRP) mean CFB (LOCF) (50 mg q.d., week 8, 24 weeks results): −1.66; DAS28(CRP) mean CFB (LOCF) (100 mg q.d., week 1, 12 weeks results): −1.01; DAS28(CRP) mean CFB (LOCF) (100 mg q.d., week 1, 24 weeks results): −1.00; DAS28(CRP) mean CFB (LOCF) (100 mg q.d., week 2, 12 weeks results): −1.50; DAS28(CRP) mean CFB (LOCF) (100 mg q.d., week 2, 24 weeks results): −1.51; DAS28(CRP) mean CFB (LOCF) (100 mg q.d., week 4, 12 weeks results): −1.88; DAS28(CRP) mean CFB (LOCF) (100 mg q.d., week 4, 24 weeks results): −1.89; DAS28(CRP) mean CFB (LOCF) (100 mg q.d., week 8, 24 weeks results): −2.13; DAS28(CRP) mean CFB (LOCF) (100 mg q.d., week 12, 12 weeks results): −2.21; DAS28(CRP) mean CFB (LOCF) (100 mg q.d., week 12, 24 weeks results): −2.23; DAS28(CRP) mean CFB (LOCF) (100 mg q.d., week 16, 24 weeks results): −2.51; DAS28(CRP) mean CFB (LOCF) (100 mg q.d., week 20, 24 weeks results): −2.65; DAS28(CRP) mean CFB (LOCF) (100 mg q.d., week 24, 24 weeks results): −2.70; % patients reaching low disease activity and/or remission at week 12 (LOCF) (100 mg q.d., 12 weeks results): 34%; % patients reaching low disease activity at week 12 (LOCF) (100 mg q.d., 12 weeks results): 13%; % patients reaching remission at week 12 (LOCF) (100 mg q.d., 12 weeks results): 21%; % patients reaching low disease activity and/or remission at week 24 (LOCF) (100 mg q.d., 24 weeks results): 51%; % patients reaching low disease activity at week 24 (LOCF) (100 mg q.d., 24 weeks results): 14%; % patients reaching remission at week 24 (LOCF) (100 mg q.d., 24 weeks results): 36%; DAS28(CRP) mean CFB (LOCF) (100 mg q.d., week 8, 12 weeks results): −2.12; DAS28(CRP) mean CFB (LOCF) (200 mg q.d., week 1, 12 weeks results): −1.17; DAS28(CRP) mean CFB (LOCF) (200 mg q.d., week 1, 24 weeks results): −1.17; DAS28(CRP) mean CFB (LOCF) (200 mg q.d., week 2, 12 weeks results): −1.52; DAS28(CRP) mean CFB (LOCF) (200 mg q.d., week 2, 24 weeks results): −1.52; DAS28(CRP) mean CFB (LOCF) (200 mg q.d., week 4, 12 weeks results): −1.92; DAS28(CRP) mean CFB (LOCF) (200 mg q.d., week 4, 24 weeks results): −1.92; DAS28(CRP) mean CFB (LOCF) (200 mg q.d., week 8, 24 weeks results): −2.31; DAS28(CRP) mean CFB (LOCF) (200 mg q.d., week 12, 12 weeks results): −2.49; DAS28(CRP) mean CFB (LOCF) (200 mg q.d., week 12, 24 weeks results): −2.47; DAS28(CRP) mean CFB (LOCF) (200 mg q.d., week 16, 24 weeks results): −2.70; DAS28(CRP) mean CFB (LOCF) (200 mg q.d., week 20, 24 weeks results): −2.86; DAS28(CRP) mean CFB (LOCF) (200 mg q.d., week 24, 24 weeks results): −2.80; % patients reaching low disease activity and/or remission at week 12 (LOCF) (200 mg q.d., 12 weeks results): 37%; % patients reaching low disease activity at week 12 (LOCF) (200 mg q.d., 12 weeks results): 15%; % patients reaching remission at week 12 (LOCF) (200 mg q.d., 12 weeks results): 22%; % patients reaching low disease activity and/or remission at week 24 (LOCF) (200 mg q.d., 24 weeks results): 51%; % patients reaching low disease activity at week 24 (LOCF) (200 mg q.d., 24 weeks results): 26%; % patients reaching remission at week 24 (LOCF) (200 mg q.d., 24 weeks results): 26%; DAS28(CRP) mean CFB (LOCF) (200 mg q.d., week 8, 12 weeks results): −2.30
